The source made the active and inactive calls. The calls are words filed in the database; no cut-off is given here.

Series [1] in a line: Cytotoxicity against T cell. In kind it is cell-based.
The test system of another series is T-cell. Put plainly: Immunoregulatory activity assessed as inhibition of T cell proliferation at 0.1 uM. In kind it is functional, cell-based.
The next series concerns B-cell. Put plainly: Immunoregulatory activity assessed as stimulation of B cell proliferation at 10 uM. Format: functional, cell-based.

As to `COc1cc(CO)ccc1O[C@@H]1O[C@H](CO)[C@@H](O)[C@H](O)[C@H]1O` [VANILLOLOSIDE], in series [1], the Activity entry is recorded as “Non-toxic”. Also, the result in the series with T-cell and in the series on B-cell was Active.

Regarding `CC(C)[C@H]1[C@@H]2OC(=O)[C@H]1[C@H]1C[C@H](O[C@@H]3O[C@H](CO)[C@@H](O)[C@H](O)[C@H]3O)[C@]3(CO3)[C@@]1(C)[C@H]2O` [DENDROMONILISIDE C], the Activity result in series [1] was “Non-toxic”. Also, the outcome with T-cell and in the series on B-cell was Active.

On to `CC(C)(O)[C@H]1C[C@H](O[C@@H]2O[C@H](CO)[C@@H](O)[C@H](O)[C@H]2O)[C@@]2(C)[C@@H]3CC[C@]2(C)C(=O)[C@@H]31` [DENDROMONILISIDE A], for which the Activity entry in series [1] is recorded as “Non-toxic”. Also, the result in the series with T-cell and with B-cell was Active.

These data come from ChEMBL document CHEMBL1146585, “Copacamphane, picrotoxane, and alloaromadendrane sesquiterpene glycosides and phenolic glycosides from Dendrobium moniliforme” (J Nat Prod, 2003).
